In brackets after ≈: the same amount, converted by molar mass.

Common to all, as to type: cell-based
Assay [1] relates to P-388 (suspension culture of a lymphoid neoplasm from DBA/2 mouse). In words: Cytotoxic activity screening, P-388 cells. Conditions: Mus musculus, P388, 72 h, three days of incubation, approximate IC50 vs control growth. As for the experimental part:
(§1) Cell Cultures. Cells were maintained in logarithmic phase of growth in Eagle's Minimum Essential Medium, with Earle's Balanced Salts, with 2.0 mM L-glutamine, with non-essential amino acids, without sodium bicarbonate (EMEM/neaa); supplemented with 10% Fetal Calf Serum (FCS), 10^−2 M sodium bicarbonate and 0.1 g/l penicillin-G+streptomycin sulfate.
(§2) A simple screening procedure has been carried out to determine and compare the antitumour activity of these compounds, using an adapted form of the method described by Bergeron et al (1984). The tumour cell line employed have been P-388 (suspension culture of a lymphoid neoplasm from DBA/2 mouse), A-549 (monolayer culture of a human lung carcinoma), HT-29 (monolayer culture of a human colon carcinoma) and MEL-28 (monolayer culture of a human melanoma).
P-388 cell were seeded into 16 mm wells at 1×10^4 cells per well in 1 ml aliquots of MEM 5FCS containing the indicated concentration of drug. A separate set of cultures without drug was seeded as control growth to ensure that cells remained in exponential phase of growth. All determinations were carried out in duplicate.

The subject of assay [2] is A-549 (monolayer culture of a human lung carcinoma). Kind of assay: Cytotoxic activity screening, A-549 cells. The settings on record: Homo sapiens, A549, 72 h, three days of incubation, Crystal Violet, approximate IC50. The method, then:
as §1
(§3) A separate set of cultures without drug was seeded as control growth to ensure that cells remained in exponential phase of growth. All determinations were carried out in duplicate. After three days of incubation at 37° C., 10% CO2 in a 98% humid atmosphere, the wells were stained with 0.1% Crystal Violet. An approximately IC50 was determined by comparing the growth in wells with drug to the growth in wells control.

For assay [3], the system named is HT-29 (monolayer culture of a human colon carcinoma). Kind of assay: Cytotoxic activity screening, HT-29 cells. The settings on record: Homo sapiens, HT-29, 72 h, three days of incubation, Crystal Violet, approximate IC50. As for the experimental part: as §1, §3
The test system of assay [4] is MEL-28 (monolayer culture of a human melanoma). Kind of assay: Cytotoxic activity screening, MEL-28 cells. Conditions: Homo sapiens, SK-MEL-28, 72 h, three days of incubation, Crystal Violet, approximate IC50. As for the experimental part:
as §1, §2
A-549, HT-29 and MEL-28 were seeded into 16 mm wells at 2×10^4 cells per well in 1 ml aliquots of MEM 10FCS containing the indicated concentration of drug. A separate set of cultures without drug was seeded as control growth to ensure that cells remained in exponential phase of growth. All determinations were carried out in duplicate. After three days of incubation at 37° C., 10% CO2 in a 98% humid atmosphere, the wells were stained with 0.1% Crystal Violet. An approximately IC50 was determined by comparing the growth in wells with drug to the growth in wells control.

Assay [5] has as its system DU-145. In words: Cytotoxic activity screening, DU-145 cells. The settings on record: Homo sapiens, DU-145, DU-145 cells. The method, then: [The source words this procedure for another cell line and reports this cell line under the same test.] as §1, §2
Examples of biological activities of the compounds described in the present application are in Table IV (IC50 (ng/mL)) on the following pages.

What is called IC50 is the concentration needed to halve the response being measured. As for `COc1c(C)cc2c(c1O)[C@@H]1C3[C@@H]4SC[C@H](NC(=O)CC(C)C)C(=O)OC[C@@H](c5c6c(c(C)c(OC(C)=O)c54)OCO6)N3[C@@H](O)[C@H](C2)N1C` (some centres unmarked) [Compound 4d], the IC50 in assay [1], in assay [2], in assay [3], in assay [4] and in assay [5] was 0.5 ng/mL (≈ 0.717 nM) in each case.

Take `COc1c(C)cc2c(c1O)[C@@H]1C3[C@@H]4SC[C@@H](NC(C)=O)C(=O)OC[C@@H](c5c6c(c(C)c(OC(C)=O)c54)OCO6)N3[C@@H](C#N)[C@H](C2)N1C` (some centres unmarked) [Compound 3a]: the IC50 in assay [1], in assay [2], in assay [3], in assay [4] and in assay [5] was 0.5 ng/mL (≈ 0.752 nM) each time.

Take `CCCC(=O)N[C@H]1CS[C@@H]2c3c(OC(C)=O)c(C)c4c(c3[C@H](COC1=O)N1C2[C@H]2c3c(cc(C)c(OC)c3O)C[C@@H]([C@@H]1O)N2C)OCO4` (some centres unmarked) [Compound 4c]: the IC50 in assay [1], in assay [2], in assay [3], in assay [4] and in assay [5] was 0.1 ng/mL (≈ 0.146 nM) throughout.

On to `COc1c(C)cc2c(c1O)[C@@H]1C3[C@@H]4SC[C@H](NC(=O)C(NC(=O)/C=C/c5ccccc5)C(C)C)C(=O)OC[C@@H](c5c6c(c(C)c(OC(C)=O)c54)OCO6)N3[C@@H](C#N)[C@H](C2)N1C` (some centres unmarked) [Compound 3r], for which the 50% inhibitory concentration (IC50) in assay [1], in assay [2], in assay [3], in assay [4] and in assay [5] was 1 ng/mL (≈ 1.17 nM) in each case.

Consider `COc1c(C)cc2c(c1O)[C@@H]1C3[C@@H]4SC[C@H](O)C(=O)OC[C@@H](c5c6c(c(C)c(OC(C)=O)c54)OCO6)N3[C@@H](O)[C@H](C2)N1C` (some centres unmarked) [Compound 19], for which the IC50 in assay [1], in assay [2], in assay [3], in assay [4] and in assay [5] was 1 ng/mL (≈ 1.63 nM) throughout.

`COc1c(C)cc2c(c1O)[C@@H]1C3[C@@H]4SC[C@@H](NC(C)=O)C(=O)OC[C@@H](c5c6c(c(C)c(O)c54)OCO6)N3[C@@H](C#N)[C@H](C2)N1C` (some centres unmarked) [Compound 25]: the half-inhibitory concentration (IC50) in assay [2] and in assay [3] was 10 ng/mL (≈ 16.1 nM) in each case.

As to `COc1c(C)cc2c(c1O)[C@@H]1C3[C@@H]4SC[C@H](NC(=O)C(F)(F)F)C(=O)OC[C@@H](c5c6c(c(C)c(OC(C)=O)c54)OCO6)N3[C@@H](C#N)[C@H](C2)N1C` (some centres unmarked) [Compound 3b], the IC50 in assay [1], in assay [2], in assay [3], in assay [4] and in assay [5] was 1 ng/mL (≈ 1.39 nM) throughout.

Turning to `COc1c(C)cc2c(c1O)[C@@H]1C3[C@@H]4SC[C@H](NC(=O)CCCCC5SCC6NC(=O)NC65)C(=O)OC[C@@H](c5c6c(c(C)c(OC(C)=O)c54)OCO6)N3[C@@H](O)[C@H](C2)N1C` (some centres unmarked) [Compound 4k], the IC50 in assay [1], in assay [2], in assay [3], in assay [4] and in assay [5] was 10 ng/mL (≈ 11.9 nM) throughout.

With `CCCCCCCC(=O)N[C@H]1CS[C@@H]2c3c(OC(C)=O)c(C)c4c(c3[C@H](COC1=O)N1C2[C@H]2c3c(cc(C)c(OC)c3O)C[C@@H]([C@@H]1C#N)N2C)OCO4` (some centres unmarked) [Compound 3e], the IC50 in assay [1], in assay [2], in assay [3], in assay [4] and in assay [5] was 1 ng/mL (≈ 1.34 nM) throughout.

For `COc1c(C)cc2c(c1O)[C@@H]1C3[C@@H]4SC[C@H](NC(=O)C(C)N)C(=O)OC[C@@H](c5c6c(c(C)c(OC(C)=O)c54)OCO6)N3[C@@H](O)[C@H](C2)N1C` (some centres unmarked) [Compound 4v], the IC50 in assay [1], in assay [2], in assay [3], in assay [4] and in assay [5] was 1 ng/mL (≈ 1.46 nM) in each case.

For `COc1c(C)cc2c(c1O)[C@@H]1C3[C@@H]4SC[C@H](NC(=O)/C=C/c5ccc(C(F)(F)F)cc5)C(=O)OC[C@@H](c5c6c(c(C)c(OC(C)=O)c54)OCO6)N3[C@@H](O)[C@H](C2)N1C` (some centres unmarked) [Compound 4i], the IC50 in assay [1], in assay [2], in assay [3], in assay [4] and in assay [5] was 1 ng/mL (≈ 1.23 nM) each time.

For the compound `COc1c(C)cc2c(c1O)[C@@H]1C3[C@@H]4SC[C@@H](NC(C)=O)C(=O)OC[C@@H](c5c6c(c(C)c(OC(C)=O)c54)OCO6)N3[C@@H](O)[C@H](C2)N1C` (some centres unmarked) [Compound 4a], the IC50 in assay [1] was found to be 0.1 ng/mL (≈ 0.153 nM); in assay [2], 0.5 ng/mL (≈ 0.763 nM); in assay [3], 0.1 ng/mL (≈ 0.153 nM); in assay [4] it was 0.5 ng/mL (≈ 0.763 nM); in assay [5], 0.1 ng/mL (≈ 0.153 nM).

Take `CC(=O)N[C@@H]1CS[C@@H]2c3c(OC(C)=O)c(C)c4c(c3[C@H](COC1=O)N1C2[C@H]2c3c(cc(C)c(O)c3O)C[C@@H]([C@@H]1C#N)N2C)OCO4` (some centres unmarked) [Compound 26]: the IC50 in assay [2] and in assay [3] was 100 ng/mL (≈ 154 nM) each time.

As to `COc1c(C)cc2c(c1O)[C@@H]1C3[C@@H]4SC[C@H](NC(=O)C(C)N)C(=O)OC[C@@H](c5c6c(c(C)c(OC(C)=O)c54)OCO6)N3[C@@H](C#N)[C@H](C2)N1C` (some centres unmarked) [Compound 3v], the IC50 in assay [1], in assay [2], in assay [3], in assay [4] and in assay [5] was 1 ng/mL (≈ 1.44 nM) throughout.

For the compound `COc1c(C)cc2c(c1O)[C@@H]1C3[C@@H]4SCC(NCc5ccccc5)C(=O)OC[C@@H](c5c6c(c(C)c(OC(C)=O)c54)OCO6)N3[C@@H](O)[C@H](C2)N1C` (some centres unmarked) [Compound 4n], the IC50 in assay [1], in assay [2], in assay [3], in assay [4] and in assay [5] was 0.5 ng/mL (≈ 0.71 nM) each time.

For the compound `COc1c(C)cc2c(c1O)[C@@H]1C3[C@@H]4SC[C@@H](O)C(=O)OC[C@@H](c5c6c(c(C)c(OC(C)=O)c54)OCO6)N3[C@@H](C#N)[C@H](C2)N1C` (some centres unmarked) [Compound 16*], the IC50 in assay [2] and in assay [3] was 10 ng/mL (≈ 16 nM) throughout.

Regarding `CC(=O)Oc1c(C)c2c(c3c1[C@H]1SC[C@H](N)C(=O)OC[C@@H]3N3C1[C@H]1c4c(cc(C)c(O)c4O)C[C@@H]([C@@H]3C#N)N1C)OCO2` (some centres unmarked) [Compound 24], the IC50 in assay [2] and in assay [3] was 100 ng/mL (≈ 164 nM) in each case.

Consider `COc1c(C)cc2c(c1O)[C@@H]1C3[C@@H]4SC[C@H](OS(C)(=O)=O)C(=O)OC[C@@H](c5c6c(c(C)c(OC(C)=O)c54)OCO6)N3[C@@H](C#N)[C@H](C2)N1C` (some centres unmarked) [Compound 17ll], for which the IC50 in assay [1], in assay [2], in assay [3] and in assay [4] was 1 ng/mL (≈ 1.42 nM) each time.

For the compound `CCCN[C@H]1CS[C@@H]2c3c(OC(C)=O)c(C)c4c(c3[C@H](COC1=O)N1C2[C@H]2c3c(cc(C)c(OC)c3O)C[C@@H]([C@@H]1C#N)N2C)OCO4` (some centres unmarked) [Compound 3o], the IC50 in assay [2] and in assay [3] was 5 ng/mL (≈ 7.52 nM) throughout.

For the compound `CCCN[C@H]1CS[C@@H]2c3c(OC(C)=O)c(C)c4c(c3[C@H](COC1=O)N1C2[C@H]2c3c(cc(C)c(OC)c3O)C[C@@H]([C@@H]1O)N2C)OCO4` (some centres unmarked) [Compound 4o], the IC50 in assay [2] and in assay [3] was 1 ng/mL (≈ 1.52 nM) each time.

Take `CCCCCCCCCCCCCCCC(=O)O[C@H]1CS[C@@H]2c3c(OC(C)=O)c(C)c4c(c3[C@H](COC1=O)N1C2[C@H]2c3c(cc(C)c(OC)c3O)C[C@@H]([C@@H]1O)N2C)OCO4` (some centres unmarked) [Compound 21f]: the IC50 in assay [2] and in assay [3] was > 1000 ng/mL throughout.

For the origin of these results see US7919493B2, “Anititumoral ecteinascidin derivatives” (Pharma Mar, S.A., priority 2001, dated 2011).
